Data as given in PMC11879280, “Antimicrobial activity of peptoids against Metallo-β-lactamase-producing Klebsiella pneumoniae, Acinetobacter baumannii, Pseudomonas aeruginosa, and other WHO priority pathogens, including Candida auris” (Journal of Applied Microbiology, 2025).

Tests used:
[1] = test system: E. coli 0011; settings: E. coli 0011; CAMHB, 37°C, 16–20 h
Experimental: (§1) Briefly, bacteria were suspended in cation-adjusted Mueller–Hinton broth (CAMHB; Oxoid, UK) for antibiotics, or MHB (Oxoid, UK) for peptidomimetics to obtain 5 × 10^5 colony forming unit (CFU) ml^−1. […] Positive controls contained only microbes, and blanks contained only media. Microbial suspensions (100 µl) were added to wells, plates wrapped, and incubated at 37°C, 120 rpm for 16–20 h. After incubation, suspensions were removed, log10 diluted, and plated on Trypticase Soya Agar with phosphatidylcholine and Tween 80 to determine minimum bactericidal or fungicidal concentration (MBC or MFC). […] Geometric mean MIC of the peptoids were calculated to evaluate the broad overview of antimicrobial activity across the pathogens.

[2] = test system: A. baumannii 006; settings: A. baumannii 006; CAMHB, 37°C, 16–20 h
Experimental: as §1

[3] = test system: En. cloacae 001; settings: En. cloacae 001; CAMHB, 37°C, 16–20 h
Experimental: as §1

[4] = test system: En. cloacae 005; settings: En. cloacae 005; CAMHB, 37°C, 16–20 h
Experimental: as §1

[5] = test system: K. pneumoniae JIE2709; settings: K. pneumoniae JIE2709; CAMHB, 37°C, 16–20 h
Experimental: as §1

[6] = test system: K. pneumoniae JIE2713; settings: K. pneumoniae JIE2713; CAMHB, 37°C, 16–20 h
Experimental: as §1

[7] = test system: E. coli 0010; settings: E. coli 0010; CAMHB, 37°C, 16–20 h
Experimental: as §1

[8] = test system: K. pneumoniae JIE4212; settings: K. pneumoniae JIE4212; CAMHB, 37°C, 16–20 h
Experimental: as §1

[9] = test system: A. baumannii ATCC 19 606; settings: A. baumannii ATCC 19 606; CAMHB, 37°C, 16–20 h
Experimental: as §1

[10] = test system: E. coli 0015; settings: E. coli 0015; CAMHB, 37°C, 16–20 h
Experimental: as §1

[11] = test system: A. baumannii 008; settings: A. baumannii 008; CAMHB, 37°C, 16–20 h
Experimental: as §1

[12] = test system: A. baumannii 007; settings: A. baumannii 007; CAMHB, 37°C, 16–20 h
Experimental: as §1

[13] = test system: P. aeruginosa AR-1270; settings: P. aeruginosa AR-1270; CAMHB, 37°C, 16–20 h
Experimental: as §1

[14] = test system: P. aeruginosa 33; settings: P. aeruginosa 33; CAMHB, 37°C, 16–20 h
Experimental: as §1

[15] = test system: En. cloacae 003; settings: En. cloacae 003; CAMHB, 37°C, 16–20 h
Experimental: as §1

[16] = test system: E. coli 005; settings: E. coli 005; CAMHB, 37°C, 16–20 h
Experimental: as §1

[17] = test system: A. baumannii 005; settings: A. baumannii 005; CAMHB, 37°C, 16–20 h
Experimental: as §1

[18] = test system: K. pneumoniae JIE2713; assay: Checkerboard microdilution synergy test; type: cell-based, Klebsiella pneumoniae
Experimental: (§2) Then, 10 µl of bacteria (5 × 10^6 CFU ml^−1) or C. auris (2.5 × 10^4 CFU ml^−1) were added to each well, except for the sterility control well. […] The sterility control wells contained only MHB (or RPMI in case of C. auris), and the growth control contained 110 µl of microbial inoculum with no antimicrobials. Subsequently, the plates were incubated for 18- 24 hours at 36 ± 1 °C.
(§3) The FIC for each combination interaction was calculated as follows:
(§4) Then, the summation of FIC (ƩFIC) was calculated for each antimicrobial combination as follows: ƩFIC = FICA + FICB. […] All antimicrobial synergy experiments were repeated in at least two independent runs.

[19] = test system: P. aeruginosa 216; settings: P. aeruginosa 216; CAMHB, 37°C, 16–20 h
Experimental: as §1

[20] = test system: K. pneumoniae JIE2709; assay: Checkerboard microdilution synergy test; type: cell-based, Klebsiella pneumoniae
Experimental: as §2, §3, §4

[21] = Klebsiella pneumoniae, read-out: MIC of DrugB (alone, checkerboard)

Row | Compound | MIC of antibiotics [1] [µg/mL] | MIC of antibiotics [2] [µg/mL] | MIC of antibiotics [3] [µg/mL] | MIC of antibiotics [4] [µg/mL] | MIC of antibiotics [5] [µg/mL] | MIC of antibiotics [6] [µg/mL] | MIC of antibiotics [7] [µg/mL] | MIC of antibiotics [8] [µg/mL] | MIC of antibiotics [9] [µg/mL] | MIC of antibiotics [10] [µg/mL] | MIC of antibiotics [11] [µg/mL] | MIC of antibiotics [12] [µg/mL] | MIC of antibiotics [13] [µg/mL] | MIC of antibiotics [14] [µg/mL] | MIC of antibiotics [15] [µg/mL] | MIC of antibiotics [16] [µg/mL] | MIC of antibiotics [17] [µg/mL] | MIC of antibiotics [19] [µg/mL] | further results
1 | CNC(C)C1CCC(N)C(OC2C(N)CC(N)C(OC3OCC(C)(O)C(NC)C3O)C2O)O1 (stereo not shown) [Gen, gentamicin, reference compound] | 0.5 | >128 | 4 | 0.25 | 0.5 | >128 | 0.25 | 128 | 4 | 0.5 | >128 | >128 | >128 | >128 | 0.5 | 0.25 | >128 | – | MIC [18, 21]: 1020 µg/mL; FICDrugB ([18]; in combination with TM8): 0.5; MF of antibiotic (modulation factor) ([18]; in combination with TM8): 2; MIC of DrugB + TM8 ([18]; in combination with TM8): 512 µg/mL
2 | C[C@@H](O)[C@H]1C(=O)N2C(C(=O)O)=C(S[C@@H]3CN[C@H](C(=O)N(C)C)C3)[C@H](C)[C@H]12 [Mer, meropenem, reference compound] | 1 | 64 | 1 | 0.25 | 32 | >64 | 2 | 1 | 0.5 | 2 | 64 | 64 | >64 | 4 | 1 | 2 | >64 | 1 | MIC [20, 21]: 32 µg/mL; FICDrugB ([20]; in combination with TM8): 0.125; MF of antibiotic (modulation factor) ([20]; in combination with TM8): 8; MIC of DrugB + TM8 ([20]; in combination with TM8): 4 µg/mL
3 | colistin sulfate [reference compound] | 2 | 0.25 | 2 | 2 | 1 | 1 | 2 | 1 | 2 | 0.25 | 1 | 1 | 1 | 1 | 1 | 0.25 | 0.25 | 16 | –
4 | polymyxin B [PmB, reference compound] | 2 | 0.25 | 2 | 2 | 1 | 1 | 2 | 1 | 2 | 0.25 | 1 | 1 | 2 | 2 | 1 | 0.25 | 0.25 | 16 | –
